According to ChEMBL document CHEMBL5154678, “Lysine Stapling Screening Provides Stable and Low Toxic Cationic Antimicrobial Peptides Combating Multidrug-Resistant Bacteria In Vitro and In Vivo” (J Med Chem, 2022):
In brackets after ≈: the same amount, converted by molar mass. Starred links: 1 amine or outer side, 2 acyl side, 3 side chain; linkers in the order of their positions; H or OH if unused. Positions of bridges follow the written chain, without caps; N, C: chain ends. Non-standard residues stand in square brackets, D forms with d. Residues, ends and D or L forms follow the SMILES beside them. X1 = O=C([C@H](CCCCNCC=[*:3])N[*:1])[*:2]

Columns and labels:
HEK-293T = assay: Cytotoxicity against human HEK293T cells assessed as cell survival rate at 8 to 128 Ug/ml incubated for 24 hrs by MTT assay relative to control; assay type: toxicity, cell-based; details: dose 8-128 µg/ml
Staphylococcus aureus [1] = assay: Antibacterial activity against Staphylococcus aureus BNCC 186335 assessed as inhibition of bacterial growth incubated for 16 hrs by broth microdilution method; assay type: functional
Pseudomonas aeruginosa = assay: Antibacterial activity against Pseudomonas aeruginosa BNCC 125486 assessed as inhibition of bacterial growth incubated for 16 hrs by broth microdilution method; assay type: functional
Erythrocyte = assay: Hemolytic activity against human RBC assessed as concentration required to cause 10% hemolysis; assay type: toxicity, cell-based
Staphylococcus aureus [2] = assay: Antibacterial activity against methicillin-resistant Staphylococcus aureus assessed as inhibition of bacterial growth incubated for 16 hrs by broth microdilution method; assay type: functional
Escherichia coli [3] = assay: Antibacterial activity against cephalosporin-resistant Escherichia coli BNCC 133264 assessed as inhibition of bacterial growth incubated for 16 hrs by broth microdilution method; assay type: functional
Escherichia coli [4] = assay: Antibacterial activity against Escherichia coli BNCC 133264 assessed as inhibition of bacterial growth incubated for 16 hrs by broth microdilution method; assay type: functional
Listeria monocytogenes = assay: Antibacterial activity against Listeria monocytogenes assessed as inhibition of bacterial growth incubated for 16 hrs by broth microdilution method; assay type: functional

| Compound | Activity (HEK-293T) | MIC (Staphylococcus aureus [1]) | MIC (Pseudomonas aeruginosa) | MHC (Erythrocyte) | MIC (Staphylococcus aureus [2]) | MIC (Escherichia coli [3]) | MIC (Escherichia coli [4]) | MIC (Listeria monocytogenes) |
| --- | --- | --- | --- | --- | --- | --- | --- | --- |
| CC(C)C[C@H](NC(=O)[C@H](C)NC(=O)[C@H](CCCCN)NC(=O)[C@H](C)NC(=O)[C@H](C)NC(=O)CNC(=O)[C@@H]1CCCCNC/C=C/CNCCCC[C@H](NC(=O)[C@H](Cc2ccccc2)NC(=O)CN)C(=O)N[C@@H](CC(=O)O)C(=O)N[C@@H](CC(C)C)C(=O)N[C@@H](CC(C)C)C(=O)N1)C(=O)N[C@H](C(=O)N[C@@H](CCCCN)C(=O)N[C@H](C(=O)N[C@H](C(=O)N[C@@H](CC(C)C)C(=O)N[C@@H](Cc1ccccc1)C(N)=O)C(C)C)[C@@H](C)O)C(C)C (H-GF[X1]DLL[X1]GAAKALVKTVLF-NH2; staple (E) 3-7) | Toxic | 4 µg/mL (≈ 1.93 µM) | 128 µg/mL (≈ 61.8 µM) | 32 µg/mL | 16 µg/mL (≈ 7.73 µM) | 32 µg/mL (≈ 15.5 µM) | 16 µg/mL (≈ 7.73 µM) | 16 µg/mL (≈ 7.73 µM) |
| CC[C@H](C)[C@H](NC(=O)[C@H](CCCCN)NC(=O)[C@H](CCCNC(=N)N)NC(=O)[C@@H](NC(=O)[C@H](CC(C)C)NC(=O)[C@H](CCCCN)NC(=O)[C@H](CC(C)C)NC(=O)[C@@H](NC(=O)[C@H](CCCCN)NC(=O)CNC(=O)[C@H](Cc1ccccc1)NC(=O)[C@@H](N)Cc1ccccc1)C(C)C)[C@@H](C)CC)C(=O)N[C@@H](Cc1ccccc1)C(N)=O (H-FFGKVLKLIRKIF-NH2) | – | 64 µg/mL (≈ 39.8 µM) | > 128 µg/mL | 16 µg/mL | 64 µg/mL (≈ 39.8 µM) | – | > 128 µg/mL | 8 µg/mL (≈ 4.97 µM) |
| CC[C@H](C)[C@@H]1NC(=O)[C@@H](NC(=O)[C@H](CC(N)=O)NC(=O)[C@H](CC(C)C)NC(=O)[C@@H](NC(=O)[C@H](CCCCN)NC(=O)[C@@H]2CCCN2)[C@@H](C)CC)CCCCNC/C=C/CNCCCC[C@@H](C(=O)N[C@H](C(=O)N[C@@H](CC(C)C)C(=O)N[C@@H](CCCNC(=N)N)C(=O)N[C@@H](CC(C)C)C(=O)N[C@@H](C)C(=O)N[C@@H](C)C(=O)N[C@@H](C)C(=O)N[C@@H](Cc2ccccc2)C(=O)N[C@@H](CCCCN)C(N)=O)[C@@H](C)CC)NC(=O)CNC(=O)[C@H](CC(C)C)NC1=O (H-PKILN[X1]ILG[X1]ILRLAAAFK-NH2; staple (E) 6-10) | Non-Toxic | 2 µg/mL (≈ 0.926 µM) | 16 µg/mL (≈ 7.41 µM) | 16 µg/mL | 4 µg/mL (≈ 1.85 µM) | 8 µg/mL (≈ 3.71 µM) | 4 µg/mL (≈ 1.85 µM) | 2 µg/mL (≈ 0.926 µM) |
| CC(C)C[C@H](NC(=O)[C@H](C)NC(=O)[C@H](CCCCN)NC(=O)[C@H](C)NC(=O)[C@H](C)NC(=O)CNC(=O)[C@H](CCCCN)NC(=O)[C@H](CC(C)C)NC(=O)[C@H](CC(C)C)NC(=O)[C@H](CC(=O)O)NC(=O)[C@H](CCCCN)NC(=O)[C@H](Cc1ccccc1)NC(=O)CN)C(=O)N[C@H](C(=O)N[C@@H](CCCCN)C(=O)N[C@H](C(=O)N[C@H](C(=O)N[C@@H](CC(C)C)C(=O)N[C@@H](Cc1ccccc1)C(N)=O)C(C)C)[C@@H](C)O)C(C)C [Ascaphin-8] (H-GFKDLLKGAAKALVKTVLF-NH2) | Toxic | 2 µg/mL (≈ 0.991 µM) | 16 µg/mL (≈ 7.93 µM) | 32 µg/mL | 16 µg/mL (≈ 7.93 µM) | 32 µg/mL (≈ 15.9 µM) | 4 µg/mL (≈ 1.98 µM) | 2 µg/mL (≈ 0.991 µM) |
| CCN1CCN(C(=O)N[C@@H](C(=O)N[C@@H]2C(=O)N3C(C(=O)[O-])=C(CSc4nnnn4C)CS[C@H]23)c2ccc(O)cc2)C(=O)C1=O.[Na+] [CEFOPERAZONE SODIUM] | – | 0.5 µg/mL | 4 µg/mL | – | > 128 µg/mL | > 128 µg/mL | 0.125 µg/mL | 8 µg/mL |
| CC[C@H](C)[C@H](NC(=O)[C@H](CCCCN)NC(=O)[C@@H]1CCCN1C(=O)[C@@H](NC(=O)[C@H](CC(C)C)NC(=O)[C@H](CCCCN)NC(=O)[C@H](CC(C)C)NC(=O)[C@@H](NC(=O)[C@H](CO)NC(=O)CNC(=O)[C@H](Cc1ccccc1)NC(=O)[C@@H](N)Cc1ccccc1)C(C)C)[C@@H](C)CC)C(=O)N[C@@H](CC(C)C)C(N)=O (H-FFGSVLKLIPKIL-NH2) | – | 2 µg/mL (≈ 1.36 µM) | > 128 µg/mL | 64 µg/mL | 2 µg/mL (≈ 1.36 µM) | 32 µg/mL (≈ 21.7 µM) | 64 µg/mL (≈ 43.4 µM) | 2 µg/mL (≈ 1.36 µM) |
| CC[C@H](C)[C@H](NC(=O)[C@@H]1CCCCNC/C=C/CNCCCC[C@H](NC(=O)[C@H](CC(C)C)NC(=O)[C@@H](NC(=O)[C@H](CO)NC(=O)CNC(=O)[C@H](Cc2ccccc2)NC(=O)[C@@H](N)Cc2ccccc2)C(C)C)C(=O)N[C@@H](CC(C)C)C(=O)N[C@@H]([C@@H](C)CC)C(=O)N2CCC[C@H]2C(=O)N1)C(=O)N[C@@H](CC(C)C)C(N)=O (H-FFGSVL[X1]LIP[X1]IL-NH2; staple (E) 7-11) | Toxic | 4 µg/mL (≈ 2.62 µM) | > 128 µg/mL | 32 µg/mL | 4 µg/mL (≈ 2.62 µM) | 128 µg/mL (≈ 83.9 µM) | 64 µg/mL (≈ 41.9 µM) | 4 µg/mL (≈ 2.62 µM) |
| CC(C)C[C@@H]1NC(=O)[C@H](C)NC(=O)[C@@H](NC(=O)[C@H](C)NC(=O)[C@H](C)NC(=O)CNC(=O)[C@H](CCCCN)NC(=O)[C@H](CC(C)C)NC(=O)[C@H](CC(C)C)NC(=O)[C@H](CC(=O)O)NC(=O)[C@H](CCCCN)NC(=O)[C@H](Cc2ccccc2)NC(=O)CN)CCCCNC/C=C/CNCCCC[C@@H](C(=O)N[C@H](C(=O)N[C@H](C(=O)N[C@@H](CC(C)C)C(=O)N[C@@H](Cc2ccccc2)C(N)=O)C(C)C)[C@@H](C)O)NC(=O)[C@H](C(C)C)NC1=O (H-GFKDLLKGAA[X1]ALV[X1]TVLF-NH2; staple (E) 11-15) | Toxic | 2 µg/mL (≈ 0.966 µM) | 128 µg/mL (≈ 61.8 µM) | 32 µg/mL | 8 µg/mL (≈ 3.86 µM) | 16 µg/mL (≈ 7.73 µM) | 8 µg/mL (≈ 3.86 µM) | 4 µg/mL (≈ 1.93 µM) |
| CC[C@H](C)[C@H](NC(=O)[C@H](CCCCN)NC(=O)[C@H](CC(N)=O)NC(=O)[C@H](CC(C)C)NC(=O)[C@@H](NC(=O)[C@H](CCCCN)NC(=O)[C@@H]1CCCN1)[C@@H](C)CC)C(=O)N[C@@H](CC(C)C)C(=O)NCC(=O)N[C@@H](CCCCN)C(=O)N[C@H](C(=O)N[C@@H](CC(C)C)C(=O)N[C@@H](CCCNC(=N)N)C(=O)N[C@@H](CC(C)C)C(=O)N[C@@H](C)C(=O)N[C@@H](C)C(=O)N[C@@H](C)C(=O)N[C@@H](Cc1ccccc1)C(=O)N[C@@H](CCCCN)C(N)=O)[C@@H](C)CC (H-PKILNKILGKILRLAAAFK-NH2) | – | 2 µg/mL (≈ 0.949 µM) | 4 µg/mL (≈ 1.9 µM) | 16 µg/mL | 4 µg/mL (≈ 1.9 µM) | 4 µg/mL (≈ 1.9 µM) | 4 µg/mL (≈ 1.9 µM) | 4 µg/mL (≈ 1.9 µM) |
| CC[C@H](C)[C@H](NC(=O)[C@@H]1CCCCNC/C=C/CNCCCC[C@H](NC(=O)[C@@H]2CCCN2)C(=O)N[C@@H]([C@@H](C)CC)C(=O)N[C@@H](CC(C)C)C(=O)N[C@@H](CC(N)=O)C(=O)N1)C(=O)N[C@@H](CC(C)C)C(=O)NCC(=O)N[C@@H](CCCCN)C(=O)N[C@H](C(=O)N[C@@H](CC(C)C)C(=O)N[C@@H](CCCNC(=N)N)C(=O)N[C@@H](CC(C)C)C(=O)N[C@@H](C)C(=O)N[C@@H](C)C(=O)N[C@@H](C)C(=O)N[C@@H](Cc1ccccc1)C(=O)N[C@@H](CCCCN)C(N)=O)[C@@H](C)CC (H-P[X1]ILN[X1]ILGKILRLAAAFK-NH2; staple (E) 2-6) | Toxic | 4 µg/mL (≈ 1.85 µM) | 128 µg/mL (≈ 59.3 µM) | 16 µg/mL | 4 µg/mL (≈ 1.85 µM) | 16 µg/mL (≈ 7.41 µM) | 16 µg/mL (≈ 7.41 µM) | 4 µg/mL (≈ 1.85 µM) |
| CC[C@H](C)[C@H](NC(=O)[C@@H]1CCCCNC/C=C/CNCCCC[C@H](NC(=O)[C@H](CC(C)C)NC(=O)[C@@H](NC(=O)[C@H](CCCCN)NC(=O)CNC(=O)[C@H](Cc2ccccc2)NC(=O)[C@@H](N)Cc2ccccc2)C(C)C)C(=O)N[C@@H](CC(C)C)C(=O)N[C@@H]([C@@H](C)CC)C(=O)N[C@@H](CCCNC(=N)N)C(=O)N1)C(=O)N[C@@H](Cc1ccccc1)C(N)=O (H-FFGKVL[X1]LIR[X1]IF-NH2; staple (E) 7-11) | Toxic | 16 µg/mL (≈ 9.64 µM) | > 128 µg/mL | 16 µg/mL | 32 µg/mL (≈ 19.3 µM) | 128 µg/mL (≈ 77.1 µM) | 128 µg/mL (≈ 77.1 µM) | 8 µg/mL (≈ 4.82 µM) |
| CN[C@H](CC(C)C)C(=O)N[C@H]1C(=O)N[C@@H](CC(N)=O)C(=O)N[C@H]2C(=O)N[C@H]3C(=O)N[C@H](C(=O)N[C@H](C(=O)O)c4cc(O)cc(O)c4-c4cc3ccc4O)[C@H](O)c3ccc(c(Cl)c3)Oc3cc2cc(c3O[C@@H]2O[C@H](CO)[C@@H](O)[C@H](O)[C@H]2O[C@H]2C[C@](C)(N)[C@H](O)[C@H](C)O2)Oc2ccc(cc2Cl)[C@H]1O [VANCOMYCIN] | – | – | > 128 µg/mL | – | – | > 128 µg/mL | > 128 µg/mL | – |
| CC(C)C[C@H](NC(=O)[C@H](C)NC(=O)[C@@H]1CCCCNC/C=C/CNCCCC[C@H](NC(=O)[C@H](CC(C)C)NC(=O)[C@H](CC(C)C)NC(=O)[C@H](CC(=O)O)NC(=O)[C@H](CCCCN)NC(=O)[C@H](Cc2ccccc2)NC(=O)CN)C(=O)NCC(=O)N[C@@H](C)C(=O)N[C@@H](C)C(=O)N1)C(=O)N[C@H](C(=O)N[C@@H](CCCCN)C(=O)N[C@H](C(=O)N[C@H](C(=O)N[C@@H](CC(C)C)C(=O)N[C@@H](Cc1ccccc1)C(N)=O)C(C)C)[C@@H](C)O)C(C)C (H-GFKDLL[X1]GAA[X1]ALVKTVLF-NH2; staple (E) 7-11) | – | 2 µg/mL (≈ 0.966 µM) | 32 µg/mL (≈ 15.5 µM) | 32 µg/mL | 8 µg/mL (≈ 3.86 µM) | 32 µg/mL (≈ 15.5 µM) | 16 µg/mL (≈ 7.73 µM) | 8 µg/mL (≈ 3.86 µM) |
